These results are taken from article PMC10374545, “A small molecule inhibitor of PTP1B and PTPN2 enhances T cell anti-tumor immunity” (Nature Communications, 2023).

SMILES strings stand for the structures. Several values for one entry are separate records, joined by “and”; a condition that tells them apart may be missing. Equal entries are not always repeated.

In one data set the target is T1, PTP1B (Homo sapiens, UniProt P18031).
T1 construct: PTP1B, residues 1-321; made in house; host or cells: E. coli BL21(DE3)
T1 sequence (P18031 1-321): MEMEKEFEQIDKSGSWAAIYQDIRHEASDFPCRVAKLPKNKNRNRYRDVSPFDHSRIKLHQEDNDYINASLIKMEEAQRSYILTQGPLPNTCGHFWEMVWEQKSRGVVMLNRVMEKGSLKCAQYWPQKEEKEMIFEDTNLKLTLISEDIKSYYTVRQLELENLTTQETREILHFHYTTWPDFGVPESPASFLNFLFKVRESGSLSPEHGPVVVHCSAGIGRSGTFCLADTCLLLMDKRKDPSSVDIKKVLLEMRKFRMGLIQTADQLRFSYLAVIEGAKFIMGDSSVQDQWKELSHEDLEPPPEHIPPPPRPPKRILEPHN
Description: Mode of inhibition and Ki, Lineweaver-Burk kinetic analysis with DiFMUP. Type of data set: biochemical. As for the experimental part: To determine the mode of inhibition, the reactions were initiated by the addition of enzyme (final concentration for PTP1B and PTPN2 was 0.05 nM) to the reaction mixtures (0.2 ml) containing various concentrations of DiFMUP with different concentrations of the inhibitor. […] The fluorescence signal was measured using a CLARIOstar Plus Microplate Spectrophotometer (BMG Labtech) using excitation and emission wavelength of 340 nm and 450 nm, respectively. Data were fitted using Prism GraphPad 9.2.0. For selectivity studies, the inhibition assay for other PTPs were performed under the same conditions as used for PTP1B and PTPN2 except with different DiFMUP concentration corresponding to the Km of the PTP studied.

In a further data set the test system is spleen. Description: Spleen weight, splenocytes and splenic CD8+ EM T cell signaling in AT3-OVA tumor-bearing mice. Type of data set: in vivo, mouse. As for the experimental part: Single-cell suspensions from spleens and lymph nodes were obtained as described previously. For the detection of intracellular cytokines and granzyme B, T cells were fixed and permeabilized with the BD Cytofix/Cytoperm kit according to the manufacturer’s instructions. Briefly, T cells were first surface stained with fluorophore-conjugated antibodies and then fixed followed by permeabilization on ice for 20 min. Fixed and permeabilized cells were stained for IFN-γ, TNF, and granzyme B for 45 min at room temperature. For the detection of intracellular FoxP3 the Foxp3/Transcription Factor Staining Buffer Set (eBioscience) was used according to the manufacturer’s instructions. Briefly, cells were fixed and permeabilized for 1 h on ice followed by intracellular staining at room temperature for 45 min. For the detection of serum cytokines, the BD CBA Mouse Inflammation Kit™ was used according to the manufacturers’ instructions.
Cells (1 × 10^6/10 µl) were stained with the specified antibodies on ice for 30 min in D-PBS supplemented with 2% FBS in the dark and analyzed using a Fortessa or Symphony A3 (BD Biosciences). Data was acquired using BD FACS DIVA Software v8.0.1 and analyzed using FlowJo10 (Tree Star Inc.) software. Lymphocytes were gated for eYFP^+ cells to discriminate between PTPN2 sufficient and PTPN2 negative cells after poly(I:C)-induced PTPN2-deletion in Mx1-Cre;Ptpn2^fl/fl mice. For cell quantification, known numbers of Flow-Count Fluorospheres (Beckman Coulter) were added to samples before analysis. Dead cells were excluded with propidium iodide (1 μg/ml; Sigma-Aldrich). Paraformaldehyde fixed dead cells were excluded with the LIVE/DEAD™ Fixable Near-IR Dead Cell Stain Kit (Thermo Fisher Scientific).
OVA mammary tumor cells were injected into the fourth inguinal mammary fat pads of 8 week- […]
n=8) or saline (n=8) on days (d) 6, 8, 10, 12, 14, 16, 18 and 21 after tumor cell implantation. […]
CD44hiCD62Llo CD8+ and CD4+ effector/memory (EM) T cells, CD4+CD25+FoxP3+ regulatory T cells (Tregs) and granulocytic and monocytic […]
CD8+ and CD4+ EM T cells were analysed by flow cytometry. In (a-d) representative results (means ± SEM) from at least two independent experiments are shown. In (d) significances were determined using a 1-way ANOVA Test.

[1] abbreviates: splenic CD8+ EM T cells, 10 mg/kg i.v., Fig. 3E raw data, listed as CMP-182, 10 mg/kg.

Take `CC(C)(O)CCOc1ccc2cc(O)c(N3CC(=O)NS3(=O)=O)c(F)c2c1` [Compound 182, 5-(1-Fluoro-3-hydroxy-7-(3-hydroxy-3-methylbutoxy)naphthalen-2-yl)−1,2,5-thiadiazolidin-3-one 1,1-dioxide]: the mode of inhibition result at PTP1B is given as “classic competitive inhibitor”. In addition, the “basal p-SFK and p-STAT-5 in splenic CD8+ effector/memory T cells” value in the data set with spleen (10 mg/kg i.v.) was “enhanced”. Besides, in the data set with spleen (AT3-OVA tumor-bearing mice, 10 mg/kg i.v.), the “spleen weights and splenic T cell and myeloid numbers” value is “unaltered”. For the same compound, in the data set with spleen (Figure 3C, column B, n=8), the “B cells Spleen (median)” value is given as 1202070, n=8 and the “Nk cells Spleen (median)” value is recorded as 1062533, n=8. Besides, in the data set with spleen (Figure 3E, column B, n=8), the “pSFK CD8 EM (median)” value was 356.5, n=8 and the “pSTAT5 CD8 EM (median)” value was 960.5, n=8. Further, in the data set with spleen (setting [1]), the “p-SFK MFIs, single mice” value was 362 and 359 and 441 and 347 and 414 and 282 and 298 and 354; the “p-STAT-5 MFIs, single mice” value is 1043 and 825 and 973 and 931 and 1046 and 926 and 948 and 1137.
